We go through 14 compounds from US12637471B2, “Heterocyclic compounds, compositions, methods of preparation and uses thereof” (Organon R&D Finland Ltd, priority 2021, dated 2026).

Format in all cases: biochemical
Assay [1] concerns the target T1, Recombinant human AKR1C3 (17β-HSD5) protein (Homo sapiens, UniProt P42330).
T1 construct: made in house; host or cells: E. coli
T1 sequence (P42330 1-323): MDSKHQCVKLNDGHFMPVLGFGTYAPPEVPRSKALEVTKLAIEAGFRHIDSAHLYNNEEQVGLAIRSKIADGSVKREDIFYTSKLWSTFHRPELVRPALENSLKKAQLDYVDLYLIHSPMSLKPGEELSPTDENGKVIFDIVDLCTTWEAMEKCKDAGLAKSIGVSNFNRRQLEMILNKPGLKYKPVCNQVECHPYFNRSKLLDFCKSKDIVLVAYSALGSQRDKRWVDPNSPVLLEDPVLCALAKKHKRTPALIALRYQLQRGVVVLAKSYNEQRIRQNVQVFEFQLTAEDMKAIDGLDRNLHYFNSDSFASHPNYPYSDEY
As to the kind of experiment: Inhibition of AKR1C3 (17β-hydroxysteroid dehydrogenase type 5) enzyme, fluorescence assay. Particulars: inhibitor at 500 nM. The protocol: Inhibition of AKR1C3 (17β-Hydroxysteroid Dehydrogenase Type 5) Enzyme
Recombinant human AKR1C3 (17β-HSD5) protein (GenBank Accession No. NM_003739.6) produced in E. coli was used for screening. Recombinant protein (27 nM/1 μg/ml) was incubated in 20 mM KH2PO4, 1 mM EDTA, complete protease inhibitor cocktail, pH 7.4 with 1 μM 9-acetyl-2,3,6,7-tetrahydro-1H,5H,11H-pyrano[2,3-f]pyrido[3,2,1-ij]quinolin-11-one and 1 mM NADPH for 60 to 120 min at RT, in the presence of the potential inhibitor at 500 nM concentration. Inhibitor stock solutions were prepared in DMSO. Final concentration of DMSO was adjusted to 1% in all samples. The samples were analysed by fluorescent measurement with Tecan Spark microplate reader at wavelengths 420 nm for excitation and 510 nm for emission. Samples were evaluated against standards of 9-(1-hydroxyethyl)-2,3,6,7-tetrahydro-1H,5H,11H-pyrano[2,3-f]pyrido[3,2,1-ij]quinolin-11-one at concentrations 1 μM-10 nM. Background fluorescence was reduced from all the samples and standards. The concentrations of formed product were calculated from the standard curve with Tecan Spark Magellan software. The formed product concentrations were used to calculate conversion percentages. The inhibition percentages for the samples were calculated from the conversion percentages.
Inhibition percentages of samples were calculated using following formula: […]

In assay [2] the target is T2, Recombinant human aldo-keto reductase family 1 member C2 (AKR1C2) protein (Homo sapiens, UniProt P52895).
T2 construct: made in house; host or cells: Sf-9 insect cells (baculovirus)
T2 sequence (P52895 1-323): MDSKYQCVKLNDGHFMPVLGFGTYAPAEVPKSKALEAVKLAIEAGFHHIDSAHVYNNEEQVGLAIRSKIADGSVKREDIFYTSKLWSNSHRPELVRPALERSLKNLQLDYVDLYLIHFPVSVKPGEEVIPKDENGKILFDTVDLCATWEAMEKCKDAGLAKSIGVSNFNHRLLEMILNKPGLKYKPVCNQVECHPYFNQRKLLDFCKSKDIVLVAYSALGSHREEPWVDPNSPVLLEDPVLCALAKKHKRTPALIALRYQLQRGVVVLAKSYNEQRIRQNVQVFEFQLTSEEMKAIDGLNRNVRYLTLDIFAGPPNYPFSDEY
Kind of assay: Inhibition of the aldo-keto reductase family 1 member C2, 3H-dihydrotestosterone conversion. The note with it: inhibitor at 10 μM. The protocol:
Inhibition of the Aldo-Keto Reductase Family 1 Member C2
Recombinant human aldo-keto reductase family 1 member C2 (AKR1C2) protein (GenBank Accession No. NM_001354.6) produced in Sf-9 insect cells with baculovirus was used for screening. Recombinant protein (13.6 nM/0.5 μg/ml) was incubated in 20 mM KH2PO4 pH 7.4, 1 mM EDTA, complete protease inhibitor tablet, 1 mM NADPH with 6.25 nM ^3H-labelled dihydrotestosterone for 45 min at +37° C., in the presence of the potential inhibitor at 10 μM concentration. Inhibitor stock solutions were prepared in DMSO. Final concentration of DMSO was adjusted to 1% in all samples. The enzyme reaction was stopped by addition of 10% trichloroacetic acid (final concentration 1%). Samples were filtrated through […] filtration plate (Merck). Analyses of samples was done with Waters Acquity UPLC H-class equipped with XBridge C18 column and XBridge VanGuard C18 guard column. Acetonitrile: 0.1% formic acid in water (42/58 v/v) with flow of 1.2 ml/min was used for mobile phase. The eluent was mixed with scintillant and the radioactivity was monitored in the eluate by a Scintillation Analyser. The conversion percentage of triated substrate (dihydrotestosterone) to tritiated product (5α-androstane-3α,17β-diol) for each sample was determined by the relative percentages of substrate and product in the chromatogram. The inhibition percentages of samples were calculated using following formula: […]

The target of assay [3] is T3, 17β-Hydroxysteroid Dehydrogenase Type 2 Enzyme (17β-HSD2) (Homo sapiens, UniProt P37059).
T3 construct: made in house; host or cells: Sf-9 insect cells (baculovirus)
T3 sequence (P37059 1-387): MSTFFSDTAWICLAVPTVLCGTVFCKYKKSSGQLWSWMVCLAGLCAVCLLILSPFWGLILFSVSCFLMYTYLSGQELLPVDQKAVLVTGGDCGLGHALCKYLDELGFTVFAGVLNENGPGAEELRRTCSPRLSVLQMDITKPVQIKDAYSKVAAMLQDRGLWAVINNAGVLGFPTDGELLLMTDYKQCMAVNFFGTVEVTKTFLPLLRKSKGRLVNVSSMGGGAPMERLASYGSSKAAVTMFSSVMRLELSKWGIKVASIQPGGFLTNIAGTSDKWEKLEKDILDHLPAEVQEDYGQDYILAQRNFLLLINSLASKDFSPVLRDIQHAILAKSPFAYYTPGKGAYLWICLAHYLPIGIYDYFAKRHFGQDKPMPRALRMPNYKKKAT
As to the kind of experiment: Inhibition of the 17β-hydroxysteroid dehydrogenase type 2 enzyme, 3H-testosterone conversion. Particulars: inhibitor at 10 μM. The protocol: Inhibition of the 17β-Hydroxysteroid Dehydrogenase Type 2 Enzyme
Recombinant human 173-HSD2 protein (GenBank Accession No. NM_002153.3) produced in Sf-9 insect cells with baculovirus was used for screening.
Recombinant protein (105 nM/4.5 μg/ml) was incubated in 20 mM KH2PO4 pH 8.5, 1 mM EDTA, complete protease inhibitor cocktail, 1 mM NAD with 56.25 nM testosterone (including ^3H-labelled testosterone) for 30 min at RT, in the presence of the potential inhibitor at 10 μM concentration. Inhibitor stock solutions were prepared in DMSO. Final concentration of DMSO was adjusted to 1% in all samples. The enzyme reaction was stopped by addition of 10% trichloroacetic acid (final concentration 1%). Samples were filtrated through […] filtration plate. Analyses of samples was done with Waters Acquity UPLC H-class equipped with XBridge C18 column and XBridge VanGuard C18 guard column. Acetonitrile: 0.1% formic acid in water (42/58 v/v) with flow of 1.2 ml/min was used for mobile phase. The eluent was mixed with scintillant and the radioactivity was monitored in the eluate by a Scintillation Analyser. The conversion percentage of tritiated substrate (testosterone) to product tritiated (androstenedione) for each sample was determined by the relative percentages of substrate and product in the chromatogram. The inhibition percentages of samples were calculated using following formula: […]

In the case of `N#CC(=C1CCN(C(=O)N2C3CCC2COC3)CC1)c1ccc(F)c(F)c1` [Compound 31, 2-(1-(3-oxa-8-azabicyclo[3.2.1]octane-8-carbonyl)piperidin-4-ylidene)-2-(3,4-difluorophenyl)acetonitrile], the inhibition at 0.5 µM in assay [1] stood at 95%. For the same compound, the inhibition at 10 µM in assay [2] turned out to be 11%; in assay [3] it was 9%.

On to `N#CC(=C1CCN(C(=O)N2CCc3nocc3C2)CC1)c1ccc(F)c(F)c1` [Compound 32, 2-(3,4-difluorophenyl)-2-(1-(4,5,6,7-tetrahydroisoxazolo[4,3-c]pyridine-5-carbonyl)piperidin-4-ylidene)acetonitrile], for which the inhibition at 0.5 µM in assay [1] turned out to be 97%. Besides, the inhibition at 10 µM is 17% in assay [2] and 4% in assay [3].

Consider `N#CC(=C1CCN(C(=O)N2CCC(CO)CC2)CC1)c1ccc(F)c(F)c1` [Compound 33, 2-(3,4-difluorophenyl)-2-(1-(4-(hydroxymethyl)piperidine-1-carbonyl)piperidin-4-ylidene)acetonitrile], for which the inhibition at 0.5 µM in assay [1] came out at 97%. For the same compound, the inhibition at 10 µM in assay [2] turned out to be 16%; in assay [3], 7%.

Regarding `N#CC(=C1CCN(C(=O)N2C[C@@H]3CC[C@@H]2C3)CC1)c1ccc(F)c(F)c1` [Compound 34, 2-(1-((1R,4R)-2-azabicyclo[2.2.1]heptane-2-carbonyl)piperidin-4-ylidene)-2-(3,4-difluorophenyl)acetonitrile], the inhibition at 0.5 µM in assay [1] was 95%. Further, the values for the inhibition at 10 µM in assay [2] and in assay [3] were 12% and 21%, respectively.

For the compound `N#CC(=C1CCN(C(=O)N2CCc3sccc3C2)CC1)c1ccc(F)c(F)c1` [Compound 35, 2-(3,4-difluorophenyl)-2-(1-(4,5,6,7-tetrahydrothieno[3,2-c]pyridine-5-carbonyl)piperidin-4-ylidene)acetonitrile], the inhibition at 0.5 µM in assay [1] was 96%. Moreover, the figures for the inhibition at 10 µM in assay [2] and in assay [3] were 27% and 28%, respectively.

Consider `N#CC(=C1CCN(C(=O)N2CC(C#N)C2)CC1)c1ccc(F)c(F)c1` [Compound 36, 1-(4-(cyano(3,4-difluorophenyl)methylene)piperidine-1-carbonyl)azetidine-3-carbonitrile], for which the inhibition at 0.5 µM in assay [1] came out at 94%. Besides, the inhibition at 10 µM in assay [2] was 10%; in assay [3], -3%.

Regarding `N#CC(=C1CCN(C(=O)N2C3CCC2COC3)CC1)c1ccc(F)cc1F` [Compound 37, 2-(1-(3-oxa-8-azabicyclo[3.2.1]octane-8-carbonyl)piperidin-4-ylidene)-2-(2,4-difluorophenyl)acetonitrile], the inhibition at 0.5 µM in assay [1] worked out at 96%. Moreover, the inhibition at 10 µM in assay [2] was determined as 14%; in assay [3], 25%.

Turning to `N#CC(=C1CCN(C(=O)N2CCc3nocc3C2)CC1)c1ccc(F)cc1F` [Compound 38, 2-(2,4-difluorophenyl)-2-(1-(4,5,6,7-tetrahydroisoxazolo[4,3-c]pyridine-5-carbonyl)piperidin-4-ylidene)acetonitrile], the inhibition at 0.5 µM in assay [1] is 97%. Besides, the values for the inhibition at 10 µM in assay [2] and in assay [3] were 30% and 27%, respectively.

As to `N#CC(=C1CCN(C(=O)N2CCC(CO)CC2)CC1)c1ccc(F)cc1F` [Compound 39, 2-(2,4-difluorophenyl)-2-(1-(4-(hydroxymethyl)piperidine-1-carbonyl)piperidin-4-ylidene)acetonitrile], in assay [1], the inhibition at 0.5 µM worked out at 96%. The inhibition at 10 µM in assay [2] turned out to be 13%; in assay [3], 6%.

As to `N#CC(=C1CCN(C(=O)N2CC(C#N)C2)CC1)c1ccc(F)cc1F` [Compound 40, 1-(4-(cyano(2,4-difluorophenyl)methylene)piperidine-1-carbonyl)azetidine-3-carbonitrile], the inhibition at 0.5 µM in assay [1] was found to be 95%. Besides, the figures for the inhibition at 10 µM in assay [2] and in assay [3] were 14% and 5%, respectively.

For `N#CC(=C1CCN(C(=O)N2CCC(O)CC2)CC1)c1ccc(F)c(F)c1` [Compound 41, 2-(3,4-difluorophenyl)-2-(1-(4-hydroxypiperidine-1-carbonyl)piperidin-4-ylidene)acetonitrile], the inhibition at 0.5 µM in assay [1] is 96%. Also, the inhibition at 10 µM in assay [2] and in assay [3] was 7% each time.

As to `N#CC(=C1CCN(C(=O)N2CCC(O)CC2)CC1)c1ccc(F)cc1F` [Compound 42, 2-(2,4-difluorophenyl)-2-(1-(4-hydroxypiperidine-1-carbonyl)piperidin-4-ylidene)acetonitrile], the inhibition at 0.5 µM in assay [1] was determined as 96%. The inhibition at 10 µM in assay [2] turned out to be 11%; in assay [3], 10%.

`N#CC(=C1CCN(C(=O)N2CCc3[nH]ncc3C2)CC1)c1ccc(F)c(F)c1` [Compound 43, 2-(3,4-difluorophenyl)-2-(1-(4,5,6,7-tetrahydro-1H-pyrazolo[4,3-c]pyridine-5-carbonyl)piperidin-4-ylidene)acetonitrile]: in assay [1], the inhibition at 0.5 µM worked out at 103%. Moreover, the inhibition at 10 µM in assay [2] was determined as 29%; in assay [3], 21%.

Consider `N#CC(=C1CCN(C(=O)N2CCn3cncc3C2)CC1)c1ccc(F)c(F)c1` [Compound 44, 2-(3,4-difluorophenyl)-2-(1-(5,6,7,8-tetrahydroimidazo[1,5-a]pyrazine-7-carbonyl)piperidin-4-ylidene)acetonitrile], for which the inhibition at 0.5 µM in assay [1] stood at 103%. In addition, the inhibition at 10 µM in assay [2] was found to be 18%; in assay [3] it was 12%.

What is called inhibition is the relative decrease from the control value, in per cent.
